Data from patent US10517835B2, “Composition and methods of treatment” (Blueberry Therapeutics Limited, priority 2015, dated 2019).
Entries after “also recorded” stand apart in the source; their conditions may differ. Where a name gives a salt, the structure may show the parent alone.

What was measured:
[1] = Nanoparticle formation, number and size on Malvern Instruments Nanosight LM10; type: physicochemical; details: 0.1 mg/ml terbinafine in 30% ethanol, with or without 0.3 mg/ml PHMB, room temperature at least 24 hours; for particle number: hydrochloride
Procedure: Terbinafine was mixed at 0.1 mg/ml in 30% ethanol and incubated at room temperature for at least 24 hours up to a maximum of 47 days. Another formulation was prepared by mixing terbinafine at 0.1 mg/ml in 30% ethanol and then adding PHMB to 0.3 mg/ml. The formulation was incubated at room temperature for at least 24 hours up to a maximum of 112 days. The number and size of any nanoparticles formed were measured using a Malvern Instruments Nanosight LM10.

[2] = tested on: Trychophyton mentagrophytes; assay: Paper disk zone of clearance assay on YEPD agar; type: cell-based; details: 4 days 30° C.
Procedure: The antifungal activity of a range of concentrations of terbinafine, encompassing the concentrations range passing through the nails in the Franz cells, was tested. Terbinafine was diluted to the following concentrations in double distilled water: 60, 6, 0.6 and 0.06 μg/ml. 40 μl of each terbinafine solution and double distilled water alone was spotted onto a 10 mm sterile 3 MM paper disk. Each disk was placed on a lawn of Trychophyton mentagrophytes plated on yeast extract peptone dextrose (YEPD) agar plates. T. mentagrophytes was used as a laboratory fungal strain due to its relevance to key pathogenic species in onychomycosis (fungal nail infection). The agar plates were inverted and incubated at 30° C. for 4 days. The plates were photographed and analysed for zones of clearance, which indicate antifungal activity.

particle size range [1]: 50-800 nm
particle number [1]: 0.5×10^8 particles/ml
particle number ([1]; listed as terbinafine alone): Approximately 0.5×10^8 particles/ml
SMILES: CN(C/C=C/C#CC(C)(C)C)Cc1cccc2ccccc12 [terbinafine, terbinafine hydrochloride]
zone of clearance ([2]; 40 μl of 0.06 μg/ml solution on 10 mm disk): no zone of clearance
zone of clearance ([2]; 40 μl of 0.6 μg/ml solution on 10 mm disk, hydrochloride): clear zones of clearance; also recorded: Progressively smaller zones of clearance
zone of clearance ([2]; 40 μl of 6 μg/ml solution on 10 mm disk, hydrochloride): clear zones of clearance; also recorded: Progressively smaller zones of clearance
zone of clearance ([2]; 40 μl of 60 μg/ml solution on 10 mm disk, hydrochloride): clear zones of clearance; also recorded: largest zone of clearance
